Data reported in a melting point compilation (Tetko et al.; mined from patent text by program, amines drawn as free bases though some values may be those of a salt).

| SMILES | melting point [°C] |
| --- | --- |
| CC[C@@H]1O[C@](C#CC2CC2)(C(F)(F)F)c2c(ccc3c2OCO3)NC1=O (relative stereo) | 201 to 202 |
| CC1(C)C2CCC1(C)C(O)(c1ccccc1)C2 (stereo unspecified) | 41 to 42 |
| COc1ccc(-c2cc(=O)n(Cc3ccc(OC)c(F)c3)nc2-c2ccc(OC)cc2)cc1 | 166 to 168 |
| CCC(CC)c1cccc2nc(C(O)c3c(C)cc(C)cc3C)n(C)c12 (stereo unspecified) | 132 to 134 |
| CSc1ccccc1C(=O)CBr | 81 to 82 |
| C=CC(=O)OCCc1cc(=O)c(OCc2ccccc2)c(C(=O)c2ccc(Cc3ccc(F)cc3)o2)o1 | 104 to 106 |
| O=C1N(CO)CCN1C(c1ccccc1)c1ccccc1 | 134 |
| COc1ccc(C(=O)NC(=O)Nc2cccc3c2CC(=O)N3)cc1 | 276 to 279 |
| CCOC(=O)C1=C(C)NC(COCCn2ccnc2)=C(C(=O)OCC)C1c1ccccc1Cl (stereo unspecified) | 163 to 165 |
| COc1ccc(-n2nc3c(cc2=O)CCCc2sc(CO)cc2-3)cc1 | 130 to 131 |
| CC(=O)Nc1ccccn1 | 155 to 156 |
| Nc1ncc([N+](=O)[O-])c(OCc2ccccc2)n1 | 164 to 167 |
| CC(C)(C)c1cc(S)cc(C(C)(C)C)c1 | 47 to 49 |
| Cc1cc(CNC(=O)c2ccnc(-n3cnn(Cc4ccc(F)c(F)c4)c3=O)c2)no1 | 160 to 161 |
| CN(C)Cc1ccc(CSCCNC(=O)NCCN(C)CCN(Cc2ccc(F)cc2)c2ccccn2)o1 | 90 |
| O=c1[nH]c2ncc(-c3ccc(-c4ncc[nH]4)cc3)nc2n1CC1CCCCC1 | 349 to 351 |
| COCCOc1cc2c(Nc3cc(OC)c(Cl)cc3Cl)c(C#N)cnc2cc1OCC1CCN(C)CC1 | 153 to 155 |
| COc1cc(OC)nc(-c2c(C)[nH]c3ccccc23)n1 | 182 to 184 |
| O=Cc1c(O)cccc1OCc1ccc(C(=O)O)cc1 | 239 to 240 |
| CSc1c(C(Cc2ccccc2)C(=O)O)ccc2c3ccccc3n(Cc3ccccc3)c12 (stereo unspecified) | 154 to 156 |
| CC(c1ccccc1)C(Br)C(=O)c1ccccc1 (stereo unspecified) | 69 to 71 |
| CC(C)Cn1c(COc2ccccc2)nc2c(N)nc3ccccc3c21 | 196 to 197 |
| COc1cc2c(Nc3ccc4cn[nH]c4c3)c(C#N)cnc2cc1OCCN1CCc2ccccc2C1 | 170 to 173 |
| O=C(O)C(F)c1cccc(OCc2ccccc2Cl)c1OCc1ccccc1Cl (stereo unspecified) | 92 to 94 |
| CCc1nn(CCN)c(CC)c1Cc1cc(C#N)cc(C#N)c1 | 100 to 105 |
| COC(=O)c1ccccc1S(=O)(=O)NC(=O)Nc1nc(OC)cc(OC)n1 | 185 to 190 |

| SMILES | melting point [°C] |
| --- | --- |
| O=S(=O)(c1ccc(F)cc1)c1c[nH]c2ncccc12 | 212 to 213 |
| CC(=O)Nc1nc(-c2ccco2)c(C(=O)c2ccccn2)s1 | 216 to 217 |
| O=C(NC(=O)c1ccccc1)NC1CCC(=O)c2sccc21 (stereo unspecified) | 187 to 190 |
| Cn1c(=O)c(-c2c(Cl)cccc2Cl)cc2cnc(NCc3ccccn3)nc21 | 198 to 201 |
| N#Cc1[nH]c(-c2ccc(Cl)cc2Cl)nc1N | 223 to 225 |
| CNC(=O)NCc1cccc(-c2csc(N=C(N)N)n2)n1 | 205 to 206 |
| CCCc1c(OCCCSc2nc3ccc(C(=O)O)cc3[nH]2)ccc(C(C)=O)c1O | 106 to 108 |
| NC1CC2c3ccccc3Cc3ccccc3N2C1=O (stereo unspecified) | 186 to 188 |
| Oc1ccc(F)cc1C=C(Cl)Cl | 55 to 57 |
| CCOC1CCC(=O)N1S(=O)(=O)c1ccc(OC)cc1 (stereo unspecified) | 112 to 113 |
| Cc1cc(C2(C(F)(F)F)ON=C(c3ccc(F)cc3)O2)ccc1N (stereo unspecified) | 78 to 83 |
| N#Cc1ccc(CNC(=O)Cc2ccc(O)cc2)cc1 | 176 to 178 |
| Cc1nc(-c2ccc(Cl)cc2Cl)c(Br)n1C(F)F | 81 to 83 |
| COc1ccc(C=NO)cc1C | 70 to 72 |
| COC(=O)c1cc2c(S(=O)(=O)Cl)cc(Cl)c(Cl)c2o1 | 199 to 200 |
| CCCC(=O)c1cnc2c(OC)cccc2c1Nc1ccsc1CC | 119 to 121 |
| CCNC(=O)Nc1ccc(-c2sc3c(c2CN(C)CCC(=O)N2CCCC2)c(=O)n(-c2ccccc2)c(=O)n3Cc2c(F)cccc2F)cc1 | 240 to 244 |
| C(#Cc1ccccc1)C1=CCN(Cc2c[nH]c3ncccc23)CC1 | 198 to 200 |
| Oc1ccc(C2(c3ccc(O)cc3)c3ccccc3-c3ccccc32)cc1 | 215 |
| C[C@H]1C[C@H](O)CN1c1ccc(C#N)c2ccccc12 | 149 to 151 |
| Cc1[nH]c(S(C)(=O)=O)nc1-c1cc(C(C)(C)C)c(O)c(C(C)(C)C)c1 | 235 to 237 |
| CC(C)c1nc(CN2C(=O)C3(COc4cc5c(cc43)OCO5)c3c(Cl)cccc32)no1 (stereo unspecified) | 165 to 167 |
| O=C(OCc1ccccc1)N1CCC2(CC1)CN(c1ccc(Cl)c(Cl)c1)C(=O)O2 | 105 |
| O=C(Cl)c1ccc(NC(=O)c2ccccc2-c2ccccc2)cc1 | 118 to 120 |
| COc1ccc(CN2C(=O)C(c3cc(C#N)c(O)cc3O)c3ccccc32)cc1 (stereo unspecified) | 162 to 163 |
| Cc1nc2c(s1)-c1nc(Nc3ccccc3)ncc1CC2 | 223 to 224 |

| SMILES | melting point [°C] |
| --- | --- |
| CCSc1c(C=NOC)c(=O)n(C)c(=O)n1C | 74 to 75 |
| CCn1c(C(O)(c2cccc(F)c2)c2cccc(F)c2)nc(-c2ccncc2)c1-c1ccc(Cl)cc1 | 225 to 227 |
| CN(C)CCc1[nH]c2ccccc2c1CSc1nccn1C | 152 to 154 |
| Cc1cccc2c1C1=C(CC2)NC(=O)CC1 | 168 to 169 |
| COc1cc2ncnc(Nc3ccc(OCc4ccccn4)c(C)c3)c2cc1OCCN(C)C | 125 to 126 |
| COc1cc(Nc2c(C#N)cnc3cc(-c4ccc(CNCCS(C)(=O)=O)o4)ccc23)c(Cl)cc1Cl | 171 to 174 |
| CCn1c(=O)ccc2cnc(Nc3ccc(-c4ccccc4)cc3)nc21 | 207 to 208 |
| CCCCCCCCCCNC(=O)CC#N | 78.5 to 80 |
| CN(C)C(=S)Oc1ccc(C(=O)c2cccc(C#N)c2)cc1 | 160 |
| CC1(C)O[C@H](CC#N)C[C@H](CC(=O)N(c2ccccc2)c2ccccc2)O1 | 98 to 100 |
| O=C(O)C(Cl)(Cl)CCCCCCCCCCBr | 49 to 51 |
| CC(C)(C)OC(=O)NCCNC(=O)c1cscn1 | 112 to 118 |
| CN(C)C=Nc1nc(=O)n(-c2ccsc2)cc1F | 211 to 213 |
| Cc1cc(SC(C)C)c(NC(=O)CCCCCCSc2nc3cccc(C(F)(F)F)c3o2)c(SC(C)C)n1 | 76 to 78 |
| CN(C)CCCNC(=O)c1ccccc1-c1cc2cc(Cl)c(Cl)cc2[nH]1 | 169 |
| CC(C)(C)OC(=O)n1cc(I)c2ccncc21 | 68 to 72 |
| CSc1nn2c(N3CCN(C)CC3)ccnc2c1S(=O)(=O)c1ccccc1 | 107 to 109 |
| O=C(CN1CCN(C(c2ccc(F)cc2)c2ccc(F)cc2)CC1)Nc1cccc2ccccc12 | 173 |
| COC(=O)COC(=O)COc1ccc([N+](=O)[O-])cc1 | 88 to 90 |
| CC(CCc1ccc(N(C)C)cc1)NCC(O)c1sccc1C(N)=O (stereo unspecified) | 118 to 121 |
| COC(=O)Nc1nc2cc(F)c(OC(C)c3c(Cl)cccc3Cl)cc2[nH]1 (stereo unspecified) | 240 to 245 |
| COC(=O)Cc1ccc[nH]c1=O | 183 to 184 |
| COc1ccccc1N1CCN(CNC(=O)c2cccc(C)c2)CC1 | 139 to 142 |
| COc1ccc(C(=O)Nc2cccnc2)cc1N | 193 to 196 |
| O=C(NCc1ccc2c(c1)OCO2)c1ccc2n1Cc1ccccc1N(C(=O)COc1ccc(Cl)cc1)C2 | 168 to 169 |
| Cc1nc2c(s1)C(=O)c1ccccc1C2=O | > 260 |

| SMILES | melting point [°C] |
| --- | --- |
| Cc1cccc(N(c2ccccc2)c2ccc(N(c3ccccc3)c3cccc(C)c3)cc2)c1 | 170 to 171 |
| Cn1c(=O)ccc2cnc(Nc3ccccc3)nc21 | 244 to 247 |
| Clc1ccc(-c2ccc3nncn3n2)cc1 | 216 to 218 |
| Cn1ccc(-c2cc(OC(F)F)n(-c3ccc(NC(=O)c4ccncc4F)cc3)n2)c1 | 135 to 136 |
| CCN(CC)c1ccc(C2(c3ccc(N(C)C)cc3)OC(=O)c3ccccc32)c(N(CC)CC)c1 (stereo unspecified) | 117 to 119 |
| CC1CC(NC(=O)C(F)(F)F)=NN1c1ccc(Cl)cc1 (stereo unspecified) | 170 to 172 |
| CC(C)(C)c1cc(Cc2nc3ccccc3o2)cc(C(C)(C)C)c1O | 94 to 96 |
| CCCCc1nc2c(c(=O)[nH]1)CN(C(=O)OCC[Si](C)(C)C)CC2 | 152 to 155 |
| COc1ccc2c(c1)[C@@H](O)[C@H](CN1CCC3(CC1)C(=O)NCN3c1ccccc1)CC2 (relative stereo) | 216 to 218 |
| O=C(Nc1cc(C(F)(F)F)cc(C(F)(F)F)c1)c1cc(Cl)cnc1O | > 270 |
| CNc1cccc(OC)c1N | 60 to 61 |
| N#Cc1ccc(N2CCCC2)c2ccccc12 | 109 to 110 |
| O=C(NC1CN2CCC1CC2)c1cccc2nc(-c3ccccc3)oc12 (stereo unspecified) | 179 to 180 |
| CS(=O)(=O)Cc1cc(N)ccc1N1C(=O)c2ccc(Cl)cc2C1=O | 228 to 230 |
| CN(C)S(=O)(=O)c1ccc(C#N)c(C(F)(F)F)c1 | 133 to 136 |
| CN1CCN(c2ccc(N/C=C3\C(=O)NC(=O)c4ccc(I)cc43)cc2)CC1 | 220 to 221 |
| Cc1ccc([C@H](CC(=O)O)NC(=O)Nc2c(O)ccn(Cc3ccccc3Cl)c2=O)cc1 | 113 to 115 |
| CC(=O)Oc1ccc(-c2cc3ccccc3[nH]2)cc1 | 203 |
| O=C(Nc1ccccc1C(c1ccc(O)cc1)c1ccc(O)cc1)C12CC3CC(CC1C3)C2 | 155 to 157 |
| Cc1nc2ccccc2cc1NC(=S)N1CCN(c2cc(F)cc(F)c2)CC1 | 211 to 213 |
| CCOc1ccccc1-c1ccc2c(c1)C=C(C(=O)Nc1ccc(CN(C)C3CCOCC3)cc1)CCS2(=O)=O | 171 to 173 |
| C=C1C(=O)c2ccccc2OC1c1ccc(N(C)C)cc1 (stereo unspecified) | 110 to 112 |
| Cn1c2ccccc2c2cc(C(=O)N3CCOCC3)sc21 | 125 to 127 |
